Experiments:
[1] = test system: Babesia bovis (Texas strain); test: in vitro growth inhibition assay (SYBR Green I fluorescence), single drug and 1:1 combination; assay type: cell-based; settings: Babesia bovis, in Bos taurus, 96 h, B. bovis in vitro culture, 4 days
Experimental: (§1) A microaerophilic stationary-phase culture system was used to maintain Babesia parasite cultures for a long time. Briefly, B. caballi (USDA strain) was grown using equine red blood cells (RBCs) in GIT medium supplemented with 40% equine serum. Theileria equi (USDA strain) was grown in equine RBCs in Medium 199 (M199; Sigma-Aldrich, Tokyo) supplemented with 40% equine serum, and hypoxanthine (MP Biomedicals, Santa Ana, CA, USA) at a final concentration of 13.6 μg/ml was used as a vital supplement. Babesia bovis (Texas strain) and B. bigemina (Argentina strain) were grown in bovine RBCs in M199 medium supplemented with 40% bovine serum. Meanwhile, B. divergens (Germany strain) was grown in bovine RBCs in medium RPMI 1640 (Sigma-Aldrich, Tokyo) supplemented with 40% bovine serum. All media included 60 U/ml penicillin G, 60 μg/ml streptomycin and 0.15 μg/ml amphotericin B (Sigma-Aldrich, St. Louis, MO, USA) to prevent bacterial contamination. The cultures were incubated at 37 °C in a humidified chamber with an atmosphere of 5% CO2, 5% O2 and 90% N2. Babesia microti (Munich strain) was recovered from − 80 °C stock, intraperitoneally injected in two 8-week old female BALB/c mice (Clea Japan, Tokyo, Japan), and the parasitemia was monitored every 2 days. The mice were euthanized using an anesthesia system containing isoflurane after parasitemia reached approximately 30%, and blood was collected by cardiac puncture to initiate the in vivo experiment. The animal experiment was conducted in accordance with the Regulations for Animal Experiments of Obihiro University of Agriculture and Veterinary Medicine, Japan (animal experiment accession number: 290168).
(§2) Assays were performed in accordance with the previously described protocol. Briefly, B. bovis, B. bigemina, B. divergens, B. caballi and T. equi cultures were harvested and adjusted to 1% parasitemia with fresh RBCs to start the inhibition assay. The assays were carried out using 96-well microtiter plates where only the 60 inner wells were used, while the peripheral wells were filled with sterile distillate water to reduce evaporation during incubation. In five 96-well plates, a volume of 2.5 µl each of B. bigemina- and B. bovis-iRBCs and 5 µl each of B. divergens-, B. caballi- and T. equi-iRBCs were added to each well in triplicate and mixed with a culture medium containing the drug concentrations to a total volume of 100 µl. Various concentrations of EA, β-CD EA, APSP EA, DA, CF and AQ were dissolved in a culture medium using two-fold dilution. Wells containing DMSO at a final concentration of 0.4% and iRBCs were used as a positive control, while wells with non-infected RBCs and culture medium were used as a negative control. Additionally, a drug combination assay was performed in parallel with the single drug assay at a constant ratio of 1:1, as described previously. […] The plates were incubated in a humidified incubator with 5% CO2, 5% O2 and 90% N2 for 4 days without changing the medium. On day 4, 100 µl of a lysis buffer containing 2 × SG1 was added to each well. The plates were wrapped with aluminum foil to avoid direct light exposure and incubated at room temperature. After 6 h, fluorescence values were measured using a fluorescence spectrophotometer (Fluoroskan Ascent; Thermo LabSystems, Oceanside, CA, USA) with excitation and emission wavelengths of 485 and 518 nm, respectively. The fluorescence data were subtracted from the negative control and used to calculate the IC50. To calculate the degree of association, the growth-inhibition values obtained were entered into CompuSyn software, based on the combination index (CI) values. […] The experiments were repeated three times.

[2] = test system: Theileria equi (USDA strain); test: as above; assay type: cell-based; settings: Theileria equi, 96 h, T. equi in vitro culture, 4 days
Experimental: as §1, §2

B. caballi (USDA strain) = test: as above; assay type: cell-based, Babesia caballi; settings: Babesia caballi, 96 h, B. caballi in vitro culture, 4 days
Experimental: as §1
(§3) Assays were performed in accordance with the previously described protocol. Briefly, B. bovis, B. bigemina, B. divergens, B. caballi and T. equi cultures were harvested and adjusted to 1% parasitemia with fresh RBCs to start the inhibition assay. The assays were carried out using 96-well microtiter plates where only the 60 inner wells were used, while the peripheral wells were filled with sterile distillate water to reduce evaporation during incubation. In five 96-well plates, a volume of 2.5 µl each of B. bigemina- and B. bovis-iRBCs and 5 µl each of B. divergens-, B. caballi- and T. equi-iRBCs were added to each well in triplicate and mixed with a culture medium containing the drug concentrations to a total volume of 100 µl. Various concentrations of EA, β-CD EA, APSP EA, DA, CF and AQ were dissolved in a culture medium using two-fold dilution. Wells containing DMSO at a final concentration of 0.4% and iRBCs were used as a positive control, while wells with non-infected RBCs and culture medium were used as a negative control. Additionally, a drug combination assay was performed in parallel with the single drug assay at a constant ratio of 1:1, as described previously. […] The plates were incubated in a humidified incubator with 5% CO2, 5% O2 and 90% N2 for 4 days without changing the medium. On day 4, 100 µl of a lysis buffer containing 2 × SG1 was added to each well. The plates were wrapped with aluminum foil to avoid direct light exposure and incubated at room temperature. After 6 h, fluorescence values were measured using a fluorescence spectrophotometer (Fluoroskan Ascent; Thermo LabSystems, Oceanside, CA, USA) with excitation and emission wavelengths of 485 and 518 nm, respectively. The fluorescence data were subtracted from the negative control and used to calculate the IC50. […]

[3] = test system: Babesia microti (Munich strain); test: in vivo growth inhibition and drug combination assays in B. microti-infected BALB/c mice; settings: second assay; for peak parasitemia level: 5 days, DDW control 58.3%
Experimental: as §1
In vivo growth inhibition assays of EA, β-CD EA and APSP EA were performed in B. microti-infected BALB/c mice in accordance with the previous protocol in two separate trials. […] The mice in groups 2–8 were intraperitoneally (i.p.) injected with 0.5 ml of inoculum (1 × 10^7 B. microti-iRBCs). Group 1 was left uninfected and untreated as a negative control. When the average parasitemia in all mice reached 1%, drug treatment was initiated for 5 consecutive days. […] DA at a concentration of 25 mg/kg body weight (BW) was administrated i.p. to the third group as a reference drug control.

B. microti = test: nested PCR detection of B. microti ss-rRNA gene in blood of treated mice; assay type: in vivo, Babesia microti; settings: day 42; 20 mg/kg AQ
[4] = test system: B. bigemina (Argentina strain); test: in vitro growth inhibition assay (SYBR Green I fluorescence), single drug and 1:1 combination; assay type: cell-based, Babesia bigemina; settings: Babesia bigemina, 96 h, B. bigemina in vitro culture, 4 days
Experimental: as §1, §3

[5] = test system: Madin-Darby bovine kidney (MDBK) cell line; test: cytotoxicity assay (CCK-8); assay type: cell-based; settings: for EC50: Bos taurus, 24 h, MDBK cells, 24 h exposure, CCK-8
Experimental: (§4) The MDBK cell line was maintained in 75 cm^2 culture flasks with Minimum Essential Medium Eagle (MEM; Gibco, Grand Island, NY, USA), while Dulbecco’s Modified Eagle’s Medium (DMEM; […] Each medium was supplemented with 10% fetal bovine serum, 0.5% penicillin/streptomycin (Gibco), and an additional 1% glutamine. Every 3 to 4 days, the medium was changed, and the cells were incubated until approximately 80% confluent. The cells were free from mycoplasma contamination after being checked by staining with 4,6-diamidino-2-phenylindole dihydrochloride (DAPI; Sigma-Aldrich, St. Louis). The cell detachment from the culture flask was done using TrypLE^TM Express (Gibco) after washing two times with Dulbecco’s phosphate-buffered saline (DPBS). Subsequently, viable cells were counted using a Neubauer Improved C-Chip (NanoEnTek Inc., Seoul, Korea) after staining with 0.4% trypan blue solution. The drug-exposure viability assay was performed in accordance with the recommendation for the Cell Counting Kit-8 (CCK-8; Dojindo, Kumamoto, Japan). Briefly, in a 96-well plate, 100 µl of cells at a density of 5 × 10^4 cells/ml were seeded per well and allowed to attach to the plate for 24 h at 37 °C in a humidified incubator with 5% CO2. Ten microliters of drug diluted two-fold were added to each well to a final concentration of 0.781 to 800 µM in triplicate. Wells with only a culture medium were used as blanks, while wells containing cells and a medium with 0.5% DMSO were used as positive controls. Drug exposure lasted for 24 h. After 24 h, 10 µl of CCK-8 was added, and the plate was further incubated for 3 h. Absorbance was measured at 450 nm using a microplate reader.

[6] = test system: human foreskin fibroblast (HFF) cell line; test: cytotoxicity assay (CCK-8); assay type: cell-based; settings: for EC50: Homo sapiens, HFF cells, 24 h exposure, CCK-8
Experimental: as §4

[7] = test system: mouse embryonic fibroblast (NIH/3T3) cell line; test: cytotoxicity assay (CCK-8); assay type: cell-based; settings: for EC50: Mus musculus, NIH3T3, NIH/3T3 cells, 24 h exposure, CCK-8
Experimental: as §4

[8] = test system: B. divergens (Germany strain); test: in vitro growth inhibition assay (SYBR Green I fluorescence), single drug and 1:1 combination; assay type: cell-based, Babesia divergens; settings: Babesia divergens, 96 h, B. divergens in vitro culture, 4 days
Experimental: as §1, §3

[9] = EC50 NIH/3T3 / IC50 B. bigemina
[10] = EC50 NIH/3T3 / IC50 B. divergens

In the case of O=C1C(O)=C([C@H]2CC[C@H](c3ccc(Cl)cc3)CC2)C(=O)c2ccccc21 [AQ, atovaquone], the IC50 [1] is reported as 0.039 ± 0.002 µM, the IC50 [2] is reported as 0.095 ± 0.0655 µM and the IC50 (B. caballi (USDA strain)) is reported as 0.102 ± 0.0141 µM. The “day p.i. from which parasitemia was undetectable by microscopic examination” value ([3]; 20 mg/kg AQ) was 15 day p.i, the peak parasitemia level ([3]; 20 mg/kg AQ oral) was 4.3% and the “parasite DNA in blood (nPCR)” value (B. microti) was “not detected”. The IC50 [4] was 0.701 ± 0.04 µM, the EC50 ([5]; MDBK) was greater than 100 µM and the “Selective indices MDBK” value ([5]; EC50 MDBK / IC50 B. bigemina) was “˃ 12.7”. The “Selective indices MDBK” value ([5]; EC50 MDBK / IC50 B. caballi) was “˃ 30.4”, the “Selective indices MDBK” value ([5]; EC50 MDBK / IC50 B. divergens) was “˃ 18.5” and the “Selective indices MDBK” value ([5]; EC50 MDBK / IC50 T. equi) was “˃ 13.4”. The “inhibition of cell viability” value ([5]; MDBK, 100 µM, separate assay) was “did not show any inhibition”, the “Selective indices HFF” value ([6]; EC50 HFF / IC50 B. bigemina) was “˃ 12.7” and the “Selective indices HFF” value ([6]; EC50 HFF / IC50 B. caballi) was “˃ 30.4”. The “Selective indices HFF” value ([6]; EC50 HFF / IC50 B. divergens) was “˃ 18.5”, the “Selective indices HFF” value ([6]; EC50 HFF / IC50 T. equi) was “˃ 13.4” and the “inhibition of cell viability” value ([6]; HFF, 100 µM, separate assay) was “did not show any inhibition”. The EC50 [6] was greater than 100 µM, the “Selective indices NIH/3T3” value [7, 9] was “˃ 12.7” and the “Selective indices NIH/3T3” value ([7]; EC50 NIH/3T3 / IC50 B. caballi) was “˃ 30.4”. The “Selective indices NIH/3T3” value [7, 10] was “˃ 18.5”, the “Selective indices NIH/3T3” value ([7]; EC50 NIH/3T3 / IC50 T. equi) was “˃ 13.4” and the EC50 [7] was greater than 100 µM. For the same compound, the “inhibition of cell viability” value ([7]; NIH/3T3, 100 µM, separate assay) was “did not show any inhibition” and the IC50 [8] was 0.038 ± 0.002 µM.
Work on CC(C)/N=c1\cc2n(-c3ccc(Cl)cc3)c3ccccc3nc-2cc1Nc1ccc(Cl)cc1 [CF, clofazimine] yielded an IC50 [1] of 8.24 ± 1.7 µM, an IC50 [2] of 2.88 ± 0.9 µM and an IC50 (B. caballi (USDA strain)) of 7.95 ± 1.8 µM. The “day p.i. from which parasitemia was undetectable by microscopic examination” value ([3]; 20 mg/kg CF) was 16 day p.i, the peak parasitemia level ([3]; 20 mg/kg CF oral) was 4.9% and the IC50 [4] was 5.73 ± 1.9 µM. The EC50 ([5]; MDBK) was 34 ± 3.4 µM, the “Selective indices MDBK” value ([5]; EC50 MDBK / IC50 B. bigemina) was 6.1 and the “Selective indices MDBK” value ([5]; EC50 MDBK / IC50 B. bovis) was 4.2. For the same compound, the “Selective indices MDBK” value ([5]; EC50 MDBK / IC50 B. caballi) was 4.4, the “Selective indices MDBK” value ([5]; EC50 MDBK / IC50 B. divergens) was 2.5 and the “Selective indices HFF” value ([6]; EC50 HFF / IC50 B. bigemina) was “˃ 17.5”. For the same compound, the “Selective indices HFF” value ([6]; EC50 HFF / IC50 B. bovis) was “˃ 12.1”, the “Selective indices HFF” value ([6]; EC50 HFF / IC50 B. caballi) was “˃ 12.6” and the “Selective indices HFF” value ([6]; EC50 HFF / IC50 B. divergens) was “˃ 7.2”. For the same compound, the “Selective indices HFF” value ([6]; EC50 HFF / IC50 T. equi) was “˃ 34.7”, the EC50 [6] was greater than 100 µM and the “Selective indices NIH/3T3” value [7, 9] was “˃ 17.5”. The “Selective indices NIH/3T3” value ([7]; EC50 NIH/3T3 / IC50 B. bovis) was “˃ 12.1”, the “Selective indices NIH/3T3” value ([7]; EC50 NIH/3T3 / IC50 B. caballi) was “˃ 12.6” and the “Selective indices NIH/3T3” value [7, 10] was “˃ 7.2”. For the same compound, the “Selective indices NIH/3T3” value ([7]; EC50 NIH/3T3 / IC50 T. equi) was “˃ 34.7”, the EC50 [7] was greater than 100 µM and the IC50 [8] was 13.8 ± 4.3 µM.

— PMC6537213, “Ellagic acid microspheres restrict the growth of Babesia and Theileria in vitro and Babesia microti in vivo” (Parasites & Vectors, 2019)
